Results from US20210070748A1, “INHIBITORS OF BRUTONS TYROSINE KINASE” (Pharmacyclics LLC, priority 2015, published 2021).

Legend:
ITK = molecular target: T1, ITK (Homo sapiens, UniProt Q08881); test: Inhibition of a panel of kinases, in vitro HotSpot kinase assay: ITK; assay type: biochemical; conditions: E compounds, Table 17
T1 sequence (Q08881 1-620): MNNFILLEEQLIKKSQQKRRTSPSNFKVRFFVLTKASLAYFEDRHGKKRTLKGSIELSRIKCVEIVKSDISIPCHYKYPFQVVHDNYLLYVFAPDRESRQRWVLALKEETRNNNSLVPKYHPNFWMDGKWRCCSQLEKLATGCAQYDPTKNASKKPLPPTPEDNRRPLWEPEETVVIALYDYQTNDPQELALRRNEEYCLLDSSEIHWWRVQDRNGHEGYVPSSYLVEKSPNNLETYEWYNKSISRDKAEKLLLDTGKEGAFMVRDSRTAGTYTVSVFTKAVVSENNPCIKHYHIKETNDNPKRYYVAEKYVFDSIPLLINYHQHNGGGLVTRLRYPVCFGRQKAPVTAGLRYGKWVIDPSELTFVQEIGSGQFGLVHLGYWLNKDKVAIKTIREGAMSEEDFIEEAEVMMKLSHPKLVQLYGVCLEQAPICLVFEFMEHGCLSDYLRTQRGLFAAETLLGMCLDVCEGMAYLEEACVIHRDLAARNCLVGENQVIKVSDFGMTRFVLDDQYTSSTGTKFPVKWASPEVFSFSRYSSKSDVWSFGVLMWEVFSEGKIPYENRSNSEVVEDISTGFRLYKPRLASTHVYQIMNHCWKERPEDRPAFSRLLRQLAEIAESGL
Description: (§1) The degree of inhibition of a panel of kinases is determined using the in vitro HotSpot kinase assay (purified enzymes, ^33P-ATP, an appropriate substrate and 1 μM ATP).

TEC = molecular target: T2, TEC (Homo sapiens, UniProt P42680); test: Inhibition of a panel of kinases, in vitro HotSpot kinase assay: TEC; assay type: biochemical; conditions: E compounds, Table 17
T2 sequence (P42680 1-631): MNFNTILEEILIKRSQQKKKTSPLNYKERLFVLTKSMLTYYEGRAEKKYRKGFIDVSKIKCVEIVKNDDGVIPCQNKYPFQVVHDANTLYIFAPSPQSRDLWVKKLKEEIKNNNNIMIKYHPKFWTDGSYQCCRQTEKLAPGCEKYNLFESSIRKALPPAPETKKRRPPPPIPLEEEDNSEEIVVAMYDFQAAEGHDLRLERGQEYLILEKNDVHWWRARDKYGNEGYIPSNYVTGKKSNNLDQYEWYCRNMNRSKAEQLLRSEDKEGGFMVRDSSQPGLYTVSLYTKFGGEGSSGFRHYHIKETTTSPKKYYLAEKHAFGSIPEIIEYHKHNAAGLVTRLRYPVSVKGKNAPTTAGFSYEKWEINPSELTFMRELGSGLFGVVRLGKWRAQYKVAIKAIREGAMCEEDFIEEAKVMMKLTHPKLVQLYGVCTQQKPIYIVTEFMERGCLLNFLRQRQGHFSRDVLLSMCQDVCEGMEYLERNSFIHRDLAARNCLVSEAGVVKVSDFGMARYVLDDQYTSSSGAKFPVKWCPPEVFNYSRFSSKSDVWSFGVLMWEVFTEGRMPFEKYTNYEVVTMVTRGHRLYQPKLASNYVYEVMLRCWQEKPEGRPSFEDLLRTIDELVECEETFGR
Description: as §1

| IC50 (ITK) | IC50 (TEC) | SMILES |
| --- | --- | --- |
| 0.1 to 1 µM | ≤ 0.01 µM | C[C@@H]1[C@H](NC(=O)c2ccc3c(c2)C(C)(C)OC3)CCCN1c1cnc(C(N)=O)c(Nc2cnn(C)c2)n1 [Example E-153, 5-((2R,3R)-3-(3,3-dimethyl-1,3-dihydroisobenzofuran-5-carboxamido)-2-methylpiperidin-1-yl)-3-((1-methyl-1H-pyrazol-4-yl)amino)pyrazine-2-carboxamide] |
| 0.1 to 1 µM | ≤ 0.01 µM | C[C@@H]1[C@H](NC(=O)c2ccc(-c3ncco3)cc2)CCCN1c1cnc(C(N)=O)c(Nc2cnn(C)c2)n1 [Example E-154, 3-((1-methyl-1H-pyrazol-4-yl)amino)-5-((2R,3R)-2-methyl-3-(4-(oxazol-2-yl)benzamido)piperidin-1-yl)pyrazine-2-carboxamide] |
| 0.1 to 1 µM | ≤ 0.01 µM | Cc1nc(-c2ccc(C(=O)N[C@@H]3CCCN(c4cnc(C(N)=O)c(Nc5cnn(C)c5)n4)[C@@H]3C)cc2)cs1 [Example E-155, 3-((1-methyl-1H-pyrazol-4-yl)amino)-5-((2R,3R)-2-methyl-3-(4-(2-methylthiazol-4-yl)benzamido)piperidin-1-yl)pyrazine-2-carboxamide] |
